Earlier results on 1 compound are cited in patent US11903950B2, “BCL-2 inhibitors” (Newave Pharmaceutical Inc., priority 2018, dated 2024).

Data set [1] has as its system xenograft models of small-cell lung cancer and acute lymphoblastic leukemia. Particulars: oral administration, alone.
Data set [2] deals with circulating platelets. Particulars: clinical trial, patients.

For the compound `CC1(C)CCC(c2ccc(Cl)cc2)=C(CN2CCN(c3ccc(C(=O)NS(=O)(=O)c4ccc(N[C@H](CCN5CCOCC5)CSc5ccccc5)c(S(=O)(=O)C(F)(F)F)c4)cc3)CC2)C1` [ABT-263], in data set [1], the tumor regression result is “complete tumor regressions”. Further, the “number of circulating platelets” value in data set [2] is on record as “rapid, concentration-dependent decrease in the number of circulating platelets”.
